Laboratory results: patent publication US10072034B2, “Kinase inhibitors” (Respivert Limited, priority 2016, dated 2018)

Tests used:
c-Src = c-Src (Homo sapiens (Human), UniProt P12931); test: c-Src enzyme inhibition (FRET, Z-LYTE); type: biochemical
Procedure: (§1) The enzyme inhibitory activities of compounds disclosed herein are determined by FRET using synthetic peptides labelled with both donor and acceptor fluorophores (Z-LYTE, Invitrogen Ltd., Paisley, UK).
(§2) The inhibitory activities of compounds of the invention against c-Src and Syk enzymes (Invitrogen), are evaluated in a similar fashion to that described hereinabove. The relevant enzyme (3000 ng/mL or 2000 ng/mL respectively, 2.5 μL) is incubated with the test compound (either 1 μg/mL, 0.1 μg/mL, 0.01 μg/mL, or 0.001 μg/mL, 2.5 μL each) for 2 hr at RT. The FRET peptides (8 μM. 2.5 μL), and appropriate ATP solutions (2.5 μL, 800 μM for c-Src, and 60 μM ATP for Syk) are then added to the enzymes/compound mixtures and the mixture incubated for 1 hr. Development reagent (protease, 5 μL) is added for 1 hr prior to detection in a fluorescence microplate reader (Varioskan® Flash, ThermoFisher Scientific).
(§3) In all cases, the site-specific protease cleaves non-phosphorylated peptide only and eliminates the FRET signal. Phosphorylation levels of each reaction are calculated using the ratio of coumarin emission (donor) over fluorescein emission (acceptor), for which high ratios indicate high phosphorylation and low ratios indicate low phosphorylation levels. […]

Syk = Syk (Homo sapiens (Human), UniProt P43405); test: Syk enzyme inhibition (FRET, Z-LYTE); type: biochemical
Procedure: as §1, §2, §3

TNFα release in PBMCs = test: LPS-induced TNFα release in PBMC cells (assay (b)); type: cell-based; settings: Homo sapiens, LPS-stimulated PBMCs
Procedure: Peripheral blood mononuclear cells (PBMCs) from healthy subjects are separated from whole blood using a density gradient (Lymphoprep, Axis-Shield Healthcare). The PBMCs are seeded in 96 well plates and treated with compounds at the desired concentration for 2 hours before addition of 1 ng/mL LPS (Escherichia Coli 0111:B4 from Sigma Aldrich) for 24 hours under normal tissue culture conditions (37° C., 5% CO2). The supernatant is harvested for determination of IL-8 and TNFα concentrations by sandwich ELISA (Duo-set, R&D systems) and read on the fluorescence microplate reader (Varioskan® Flash, ThermoFisher Scientific). The concentration at 50% inhibition (IC50) of IL-8 and TNFα production is calculated from the dose response curve.

Sequence of c-Src (P12931 whole entry, looked up): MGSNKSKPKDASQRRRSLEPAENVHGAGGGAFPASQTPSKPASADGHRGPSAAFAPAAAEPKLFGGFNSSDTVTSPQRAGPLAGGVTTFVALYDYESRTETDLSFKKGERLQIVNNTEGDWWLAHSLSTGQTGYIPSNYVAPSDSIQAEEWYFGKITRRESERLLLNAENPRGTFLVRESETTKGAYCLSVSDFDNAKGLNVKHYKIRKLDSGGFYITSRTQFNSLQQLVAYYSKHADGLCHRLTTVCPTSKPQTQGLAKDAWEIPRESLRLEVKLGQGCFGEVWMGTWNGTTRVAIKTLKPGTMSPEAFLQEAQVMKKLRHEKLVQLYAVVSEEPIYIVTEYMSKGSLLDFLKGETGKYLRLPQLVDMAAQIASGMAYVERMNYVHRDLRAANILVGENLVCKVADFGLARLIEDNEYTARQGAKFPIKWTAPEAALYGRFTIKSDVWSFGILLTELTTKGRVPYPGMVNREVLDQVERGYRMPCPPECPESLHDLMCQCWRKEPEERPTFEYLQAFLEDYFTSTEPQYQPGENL

COc1cc(Nc2cc(Oc3ccc(NC(=O)Nc4cc(C(C)(C)C)cc(NS(C)(=O)=O)c4OC)c4ccccc34)ccn2)cc(OCCOCCOCC(=O)O)c1 [Example 3]
IC50 (c-Src): 18 nM | IC50 (Syk): 12 nM | IC50 (TNFα release in PBMCs): 10.8 nM
